Measured values published in patent US4585866A, “Treatment of migraine with substituted tropyl benzoate derivatives” (Merrell Dow Pharmaceuticals Inc., priority 1984, dated 1986).

How the values were obtained:
5-HT M-receptor [1] = target: T1, 5-HT M-receptor (Oryctolagus cuniculus, UniProt A0A5F9C9J3); conditions: cited from earlier work
T1 construct: determining their pA2 values in the isolated rabbit heart; from tissue; host or cells: isolated rabbit heart (receptor on the cardiac neurones)
T1 sequence (A0A5F9C9J3 1-494): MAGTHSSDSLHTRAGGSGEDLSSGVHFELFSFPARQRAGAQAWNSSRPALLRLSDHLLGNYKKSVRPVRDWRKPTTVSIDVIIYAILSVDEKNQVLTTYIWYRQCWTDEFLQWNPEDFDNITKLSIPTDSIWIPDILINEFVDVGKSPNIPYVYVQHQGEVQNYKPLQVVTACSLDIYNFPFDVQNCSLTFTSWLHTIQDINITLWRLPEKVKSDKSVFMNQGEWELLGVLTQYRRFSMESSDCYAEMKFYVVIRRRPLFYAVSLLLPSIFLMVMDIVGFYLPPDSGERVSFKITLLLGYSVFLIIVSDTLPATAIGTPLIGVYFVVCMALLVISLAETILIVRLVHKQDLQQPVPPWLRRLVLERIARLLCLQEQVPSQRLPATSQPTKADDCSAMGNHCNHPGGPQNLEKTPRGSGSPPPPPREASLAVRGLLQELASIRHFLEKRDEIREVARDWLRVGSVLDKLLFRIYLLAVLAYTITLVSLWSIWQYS

acute migraine attack = conditions: slow intravenous injection, 10 mg; J. B. Hughes, Med. J. Aust. 1977; cited from earlier work
LD50 in the rat = conditions: in vivo, iv
[2] = target: T2, rabbit heart (5-HT M receptor) (Oryctolagus cuniculus, UniProt A0A5F9C9J3); assay: Inhibition of standard response to 5-HT, rabbit heart; type: cell-based; conditions: rabbit heart, agonist 5-HT; read-out: Concentration to inhibit standard response to stimulants by 50% (IC50)
T2 construct: RABBIT HEART; from tissue; host or cells: rabbit heart
T2 sequence (A0A5F9C9J3 1-494): T1 sequence (A0A5F9C9J3 1-494)
Experimental: (§1) The activity of the compounds against 5-HT can be assessed by determining their pA2 values in the isolated rabbit heart as described by J. R. Fozard et al, Eur. J. Pharmacol., 59, 195-210 (1979). In the method described, the molar concentration of antagonist which reduces the effects of twice the ED50 of 5-HT to that of the ED50 in the absence of antagonist is determined. The pA2 value is the negative logarithm of said molar concentrations.
(§2) A selection of classical in vitro pharmacological test preparations (rat uterus, rat fundus, guinea-pig ileum, guinea-pig taenia caeci) were set up according to well-established procedures (see "Pharmacological Experiments on Isolated Preparations" Staff of the Department of Pharmacology, University of Edinburgh, Livingstone, Edinburgh 1970). Various spasmogens were used to elicit contraction of these tissues though mechanisms other than the 5-HT "M" receptor. The concentrations of tropyl 3,5-dimethoxybenzoate (A), tropyl 3,5-dimethylbenzoate (B) and tropyl 3,5-dichlorobenzoate (C) which reduced the effects of a submaximal dose of agonist by 50% were determined (IC50). The results are set forth in Table VI below in which the compounds are identified by the reference letters used above.

guinea-pig taenia caeci = assay: Inhibition of standard response to calcium, guinea-pig taenia caeci; type: cell-based; conditions: Cavia porcellus; guinea-pig taenia caeci in potassium-depolarized Tyrode solution, agonist calcium; read-out: Concentration to inhibit standard response to stimulants by 50% (IC50)
Source text: as §2
*In potassiumdepolarized Tyrode solution

guinea-pig ileum = assay: Inhibition of standard response to carbachol, guinea-pig ileum; type: cell-based; conditions: Cavia porcellus, carbachol agonist instead of acetylcholine, read-out: Concentration to inhibit standard response to stimulants by 50% (IC50)
Source text: as §2
**Carbachol agonist instead of acetylcholine

[3] = system: Von Bezold-Jarisch Reflex (5-HT M-receptor); assay: Antagonism of the Von Bezold-Jarisch reflex evoked by 5-HT in the anaesthetized rat; type: in vivo, rat (male Sprague-Dawley); conditions: comparison in words, i.v.
Source text: The activity of these compounds against 5-HT can be assessed in vivo by measurement of the effect of the compound on the Von Bezold-Jarisch Reflex induced by 5-HT injected intravenously into the rat (A. S. Paintal, Physiol. Rev. 53, 159-227, 1973). The transient caridac slowing arises from an increased afferent vagus activity arising from stimulation by 5-HT of sensory afferent fibres in and around the heart (see Example 3).
Antagonism of the Von Bezold-Jarisch reflex evoked by 5-HT in the anaesthetized rat was measured for tropyl 3,5-dimethoxybenzoate (A), tropyl 3,5-dimethylbenzoate (B) and tropyl 3,5-dichlorobenzoate (C) using the following method.
Male Sprague-Dawley rats weighing 250-300 g are anaesthetized with urethane, 1.25 g/kg injected intraperitoneally and set up for recording blood pressure and heart rate as described in J. R. Fozard et al, J. Cardiovas. Pharmacol. 2, 229-245 (1980). A submaximal dose of 5-HT ([…]) is given repeatedly into the cannulated jugular vein and changes in heart rate are quantified. Antagonists are given intravenously and the doses required to just inhibit the response to 5-HT (threshold dose) or to inhibit the response to 5-HT by 50% (ED50) are determined.

5-HT M-receptor [4] = target: T1, 5-HT M-receptor; assay: pA2 against 5-HT in isolated rabbit heart; type: cell-based; conditions: isolated rabbit heart; negative log of molar concentration of antagonist reducing effect of twice the ED50 of 5-HT to that of the ED50; read-out: pA2 5-HT (converted)
Experimental: as §1

mouse = assay: LD50 in the mouse; type: in vivo; conditions: as shown by LD50 values in the mouse and rat
LD50 in the mouse = type: in vivo; conditions: in vivo, mouse

| SMILES | potency as 5-HT M-receptor antagonist (5-HT M-receptor [1]; literature) | pA2 value (5-HT) (5-HT M-receptor [1]; reported by J. R. Fozard et al, Eur. J. Pharmacol. 1979 / 1978) | relief of acute migraine attack (acute migraine attack) | LD50 (LD50 in the rat) [mg/kg] | IC50 [2] [µM] | IC50 (guinea-pig taenia caeci) [µM] | IC50 (guinea-pig ileum) [µM] | potency relative to metoclopramide [3] | Kb (5-HT M-receptor [4]) [µM] | toxicity in words (mouse) | LD50 (LD50 in the mouse; ip) [mg/kg] | LD50 (LD50 in the mouse; iv) [mg/kg] | LD50 (LD50 in the mouse; oral) [mg/kg] |
| --- | --- | --- | --- | --- | --- | --- | --- | --- | --- | --- | --- | --- | --- |
| CCN(CC)CCNC(=O)c1cc(Cl)c(N)cc1OC [metoclopramide] | potent 5-HT M-receptor antagonist | 7.2 | immediate relief of acute migraine attack |  |  |  |  |  |  |  |  |  |  |
| Cc1cc(C)cc(C(=O)O[C@H]2C[C@H]3CC[C@@H](C2)N3C)c1 [tropyl 3,5-dimethylbenzoate] |  |  |  | 9 | 0.00103 | 34.2 | 9.59 | many times more potent than metoclopramide | 0.001 | relatively non-toxic | 47 | 17 | 116 |
